Laboratory results as given in patent US20250127748A1, “METHODS FOR THE TREATMENT OF MIGRAINE AND RELATED HEADACHE SYMPTOMS USING TRICAPRYLIN” (priority 2021, published 2025).

Experiments:
[1] = system: CH attacks; conditions: Di Lorenzo et al 2018; cited from earlier work
[2] = system: trigeminal autonomic cephalgia (left hemi-cephalgia), person; test: case report: trigeminal autonomic cephalgia responsive to tricaprylin; type: in vivo, human
Excerpt: A person presented with a history of waxing and waning left hemi-cephalgia over the course of 10 years. Their past medical history included bilateral loss of hearing (right worse than left) and past episodes of dizziness leading to a diagnosis of possible Menieres disease. They had hyperlipedemia controlled with a statin. They had some excess weight (BMI 30.8), was a vegetarian and was physically active.
The cephalgia was described as a dull achy non-throbbing pain that when present is continuous over the left side of the face and across the left scalp. The pain appeared to be centered around the eye and was described as if […] were being poked in the eye. The pain also involved the left cheek and left scalp. They could not identify any specific trigger to the pain but did note that it was accompanied by tenderness to touch of the scalp on the left side of the head, including sensitivity to hair brushing. When the pain was present they would be aware of it upon awakening in the morning and it would persist throughout the day.
They had no other headache types, and had not experienced episodes of nasal stuffiness, or pupillary changes. They noted occasional excess lacrimation of the left eye. At one point they were investigated for potential ‘sinus problems’ and no sinus condition was diagnosed. […] […] self-medicated with occasional paracetamol which provided modest relief.
The subject began a daily treatment regimen with Axona®, a medical food containing the active ingredient tricaprylin.
At the time of presentation the headache had recurred to an intensity of 4-6/10 and they were restarted on a course of Axona®, starting with 5 g tricaprylin per day, increasing over 2 weeks to 20 g a day.

[3] = in-vitro digestion assays of emulsion; type: in vitro ADME; conditions: intestinal and/or colon pH vs stomach pH
Excerpt: In certain embodiments, the emulsion formed may be stable at stomach pH, e.g., at a pH of about 1 to about 3, about 1.2 to 2.9, etc. In certain embodiments, the emulsion formed may be stable at intestinal and/or colon pH, e.g., at a pH of about 5 to about 7, about 5.5 to about 6.9, etc. […] In accordance with certain aspects of the disclosure, preferential release of tricaprylin in the intestines and/or colon rather than the stomach may increase bioavailability of the tricaprylin given the location of lipid digestion enzymes in these areas.

[4] = system: participants with frequent migraine; test: randomised, double-blind, placebo-controlled study of tricaprylin as AC-SD-03 for the reduction of migraine; type: in vivo, human
Excerpt: This is a randomised, double-blind, placebo-controlled, parallel-group, multi-centre study of tricaprylin as AC-SD-03 compared with placebo for the reduction of migraine in participants with frequent migraine.
Following a screening period of up to 2 weeks, the study duration is 17 weeks including a 4-week baseline measurement period, after which randomisation occurs, a 12-week treatment period and a 1-week safety follow-up period.
The study will be completed in two parts. In Part 1, 54 participants will be randomised to receive tricaprylin as AC-SD-03, or placebo, in a 1:1 ratio. Once 54 participants are randomised, enrolment will be paused until the randomised participants have completed the study. Based on an unblinded analysis of the data from all evaluable patients from Part 1, a decision to proceed to Part 2 (enrolment of additional participants) will be taken. The decision to continue to Part 2 will be made by the Sponsor, based on a number of factors including the one-sided p-value for the analysis of the primary endpoint, ΔMDMth3, the safety and tolerability profile observed during Part 1, the observed between-subject variability, as well as trial conduct feasibility. The size of Part 2 will be determined by the between-subject variability observed in Part 1, and will be between 80 and 180 participants.
Investigational Medicinal Products: The formulation AC-SD-03 contains the active compound tricaprylin and excipients, 1:1.5. Thus 75 g AC-SD-03 contains 30 g tricaprylin and 45 g excipients (carrier, emulsifiers and flavouring). The placebo formulation, AC-SD-03P, contains 30 g safflower oil in place of the active compound tricaprylin and identical excipients to the active formulation.
Treatment Groups and Duration: At the Baseline Visit, all participants will receive a sentinel dose of 12.5 g AC-SD-03 (containing 5 g tricaprylin). […] Those that do tolerate the sentinel dose and meet other eligibility criteria, will enter the baseline measurement period of 4 weeks to determine migraine day participant eligibility for the study and to establish baseline data for comparison of endpoints during the study.
After the 4 weeks baseline measurement period, those who record 4-24 migraine days per month will be randomised to AC-SD-03 or placebo (AC-SD-03P) and will titrate from 12.5 g twice a day to 75 g twice a day, over the course of 2 weeks. Participants who have fewer than four or greater than 24 headache days per month in the baseline period will be discontinued from the study. The participant should not be told the number of migraine headache days on which eligibility is based to avoid biased reporting.
Once titration has completed, all participants will continue on the target dose they are on over an additional 10-week maintenance period.
The primary endpoint will be change from baseline in the number of migraine headache days during Month 3 (ΔMDMth3).
The secondary endpoints are: • Change from baseline in the number of migraine headache days during Month 1 (ΔMDMth1) and Month 2 (ΔMDMth2) of treatment and overall, from Months 1-3; • Change from baseline in duration of migraine of moderate to severe intensity during treatment months 1, 2 and 3; • Change from baseline in duration of migraine during treatment months 1, 2 and 3; • The proportion of participants with a 50% reduction from baseline in number of migraine headache days in treatment months 1, 2, and 3; • Change from baseline in monthly acute migraine medicine use during treatment months 1, 2 and 3; • Time to first usage of acute migraine medication; • Change from baseline Headache Impact Test (HIT-6) score at the end of Months 1, 2 and 3; • Incidence of adverse events; • Clinical safety laboratory tests; • Vital signs, ECGs, C-SSRS; […]

For `O=C(O)CCCO` [GHB], the “prevention of CH attacks” value [1] is given as “has been shown to prevent CH attacks”.

For `CN(C)CCC=C1c2ccccc2CCc2ccccc21` [amitriptyline], the “effect on degree of discomfort” value ([2]; 10 mg, earlier treatment of the same patient) was “reduced the degree of discomfort partially” and the adverse effect ([2]; 10 mg, earlier treatment of the same patient, discontinued) was “fatigue”.

For `CC(=O)Nc1ccc(O)cc1` [paracetamol], the relief of cephalgia ([2]; occasional self-medication) was “modest relief”.

In the case of `CCCCCCCC(=O)OCC(COC(=O)CCCCCCC)OC(=O)CCCCCCC` [tricaprylin], the “release of encapsulated tricaprylin from emulsion” value [3] is reported as “released from emulsion at intestinal and/or colon pH”, the “Discontinued treatment prior to completion, number of subjects” value ([4]; 12-week treatment, 40 treated) is reported as 18 and the “Discontinued treatment prior to completion, percent of subjects” value ([4]; 12-week treatment, 40 treated) is reported as “(45.0%)”. The “Primary reason for discontinuation: Adverse Event, number of subjects” value ([4]; 12-week treatment, 40 treated) was 12, the “Primary reason for discontinuation: Adverse Event, percent of subjects” value ([4]; 12-week treatment, 40 treated) was “(30.0%)” and the “Change from baseline in migraine headache days, Month 2” value ([4]; Month 2, vs placebo, one-sided p=0.066 vs target of p<0.2) was “clinically-relevant benefit”. The “Change from baseline in migraine headache days, Month 3 (primary endpoint)” value ([4]; Month 3, EEITS, vs placebo, p=0.269 vs target of p<0.2) was “positive, clinically-relevant trend”.
